Results: patent US9254280B2, “Medical food for cognitive decline” (The Regents of the University of California, priority 2011, dated 2016)

What was measured:
3×AD Tg mice [1] = assay: Probe test (platform removed, time in target quadrant); type: in vivo; conditions: 60 seconds swim, dietary supplement
Excerpt: (§1) Fisetin, a natural flavonoid enriched in strawberries, is neuroprotective and can improve cognitive function in various animal models including aging mice and beta amyloid plaque accumulating transgenic mice. We have tested 0.6% DHA alone, 500 ppm fisetin alone and DHA+fisetin in combination delivered as a food supplement (in chow) to older 3×AD Tg mice with combined amyloid and tau pathology. The study ran from ˜9 months to 13-14 months of age.
FIG. 2. […] In this test the platform is removed, and the mice are allowed to swim for 60 seconds, while the time in the target quadrant is quantified.

3×AD Tg mice [2] = assay: Morris Water Maze, hidden platform, diet supplement study; type: in vivo
Excerpt: as §1

`O=c1c(O)c(-c2ccc(O)c(O)c2)oc2cc(O)ccc12` [fisetin, 2-(3,4-dihydroxyphenyl)-3,7-dihydroxy-4H-chromen-4-one] was tested, and the “retention in the probe test (time in the target quadrant)” value (3×AD Tg mice [1]) was “also improved retention”, the Cognitive deficits (3×AD Tg mice [2]; 0.6% DHA, 500 ppm fisetin, alone or combined, in chow, older 3×AD Tg mice, ~9 to 13-14 months of age) was “not by DHA alone or fisetin alone” and the “time (latency) to find a hidden platform with additional blocks of training” value (3×AD Tg mice [2]; 12-13 month old 3×AD Tg mice on control bad (high safflower oil) diet) was “no improvement”.
